Source: patent US12570650B2, “6-substituted pyridazine compounds as SMARCA2 and/or SMARCA4 degraders” (Aurigene Oncology Limited, priority 2020, dated 2026)

Columns and labels:
Format in all cases: cell-based
SMARCA2 = target: T1, SMARCA2 (Homo sapiens, UniProt P51531); experiment: SMARCA2 degradation in VCaP cells by Western blot; details: 16 hours
T1 construct: Determination of SMARCA2 and SMARCA4 Degradation in VCaP Cells by Western Blot; endogenous in cells; host or cells: VCaP (ATCC CRL-2876)
T1 sequence (P51531 whole entry): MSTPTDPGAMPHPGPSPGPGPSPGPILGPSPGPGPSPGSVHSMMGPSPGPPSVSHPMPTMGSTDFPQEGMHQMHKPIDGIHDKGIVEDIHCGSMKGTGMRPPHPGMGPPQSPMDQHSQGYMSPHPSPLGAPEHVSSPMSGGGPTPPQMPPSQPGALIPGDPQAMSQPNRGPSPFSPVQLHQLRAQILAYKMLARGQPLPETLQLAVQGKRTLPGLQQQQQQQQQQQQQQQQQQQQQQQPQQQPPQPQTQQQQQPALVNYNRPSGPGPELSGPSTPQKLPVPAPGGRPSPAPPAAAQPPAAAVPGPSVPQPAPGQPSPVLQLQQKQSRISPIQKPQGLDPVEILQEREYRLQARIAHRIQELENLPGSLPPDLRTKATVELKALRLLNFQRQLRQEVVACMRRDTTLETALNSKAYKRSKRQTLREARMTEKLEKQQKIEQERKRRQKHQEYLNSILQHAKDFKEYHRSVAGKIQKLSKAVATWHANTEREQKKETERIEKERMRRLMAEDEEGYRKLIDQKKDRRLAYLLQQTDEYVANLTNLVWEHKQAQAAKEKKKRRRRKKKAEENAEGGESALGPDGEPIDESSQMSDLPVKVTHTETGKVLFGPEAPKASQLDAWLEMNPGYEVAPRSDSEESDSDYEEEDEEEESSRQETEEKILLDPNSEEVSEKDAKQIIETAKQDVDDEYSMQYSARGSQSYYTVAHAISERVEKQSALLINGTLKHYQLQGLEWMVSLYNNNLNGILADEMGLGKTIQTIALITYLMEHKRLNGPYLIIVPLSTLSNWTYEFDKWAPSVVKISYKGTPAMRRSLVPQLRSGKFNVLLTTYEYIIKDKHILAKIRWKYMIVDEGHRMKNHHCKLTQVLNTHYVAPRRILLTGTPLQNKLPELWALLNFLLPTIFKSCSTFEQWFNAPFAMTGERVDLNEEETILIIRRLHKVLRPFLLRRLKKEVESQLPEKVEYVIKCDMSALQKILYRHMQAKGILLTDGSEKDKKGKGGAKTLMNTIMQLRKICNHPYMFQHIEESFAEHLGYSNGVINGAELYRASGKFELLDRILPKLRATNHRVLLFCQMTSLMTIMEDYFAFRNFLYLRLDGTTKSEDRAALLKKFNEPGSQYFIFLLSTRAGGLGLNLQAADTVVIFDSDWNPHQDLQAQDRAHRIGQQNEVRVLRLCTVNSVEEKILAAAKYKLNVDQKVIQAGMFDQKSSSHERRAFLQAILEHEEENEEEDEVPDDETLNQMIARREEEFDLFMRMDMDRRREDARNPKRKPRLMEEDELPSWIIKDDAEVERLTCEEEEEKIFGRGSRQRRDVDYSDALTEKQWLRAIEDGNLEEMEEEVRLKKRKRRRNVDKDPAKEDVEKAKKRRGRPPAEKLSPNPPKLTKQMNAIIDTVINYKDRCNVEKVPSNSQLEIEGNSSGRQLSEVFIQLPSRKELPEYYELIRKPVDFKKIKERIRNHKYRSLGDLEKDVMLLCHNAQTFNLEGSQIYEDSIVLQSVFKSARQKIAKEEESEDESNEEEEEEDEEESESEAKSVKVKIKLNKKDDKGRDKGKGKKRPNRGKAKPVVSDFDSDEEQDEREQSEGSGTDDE
In short: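 VCaP cells were treated with compound for 16 hours, with DMSO at no more than 0.3% final. Lysates were immunoblotted for SMARCA2, using beta-tubulin as loading control. % degradation = 100 − (normalized band intensity treated/normalized band intensity DMSO)×100.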

SMARCA4 = target: T2, SMARCA4 (Homo sapiens, UniProt P51532); experiment: SMARCA4 degradation in VCaP cells by Western blot; details: 16 hours
T2 construct: Determination of SMARCA2 and SMARCA4 Degradation in VCaP Cells by Western Blot; endogenous in cells; host or cells: VCaP (ATCC CRL-2876)
T2 sequence (P51532 whole entry): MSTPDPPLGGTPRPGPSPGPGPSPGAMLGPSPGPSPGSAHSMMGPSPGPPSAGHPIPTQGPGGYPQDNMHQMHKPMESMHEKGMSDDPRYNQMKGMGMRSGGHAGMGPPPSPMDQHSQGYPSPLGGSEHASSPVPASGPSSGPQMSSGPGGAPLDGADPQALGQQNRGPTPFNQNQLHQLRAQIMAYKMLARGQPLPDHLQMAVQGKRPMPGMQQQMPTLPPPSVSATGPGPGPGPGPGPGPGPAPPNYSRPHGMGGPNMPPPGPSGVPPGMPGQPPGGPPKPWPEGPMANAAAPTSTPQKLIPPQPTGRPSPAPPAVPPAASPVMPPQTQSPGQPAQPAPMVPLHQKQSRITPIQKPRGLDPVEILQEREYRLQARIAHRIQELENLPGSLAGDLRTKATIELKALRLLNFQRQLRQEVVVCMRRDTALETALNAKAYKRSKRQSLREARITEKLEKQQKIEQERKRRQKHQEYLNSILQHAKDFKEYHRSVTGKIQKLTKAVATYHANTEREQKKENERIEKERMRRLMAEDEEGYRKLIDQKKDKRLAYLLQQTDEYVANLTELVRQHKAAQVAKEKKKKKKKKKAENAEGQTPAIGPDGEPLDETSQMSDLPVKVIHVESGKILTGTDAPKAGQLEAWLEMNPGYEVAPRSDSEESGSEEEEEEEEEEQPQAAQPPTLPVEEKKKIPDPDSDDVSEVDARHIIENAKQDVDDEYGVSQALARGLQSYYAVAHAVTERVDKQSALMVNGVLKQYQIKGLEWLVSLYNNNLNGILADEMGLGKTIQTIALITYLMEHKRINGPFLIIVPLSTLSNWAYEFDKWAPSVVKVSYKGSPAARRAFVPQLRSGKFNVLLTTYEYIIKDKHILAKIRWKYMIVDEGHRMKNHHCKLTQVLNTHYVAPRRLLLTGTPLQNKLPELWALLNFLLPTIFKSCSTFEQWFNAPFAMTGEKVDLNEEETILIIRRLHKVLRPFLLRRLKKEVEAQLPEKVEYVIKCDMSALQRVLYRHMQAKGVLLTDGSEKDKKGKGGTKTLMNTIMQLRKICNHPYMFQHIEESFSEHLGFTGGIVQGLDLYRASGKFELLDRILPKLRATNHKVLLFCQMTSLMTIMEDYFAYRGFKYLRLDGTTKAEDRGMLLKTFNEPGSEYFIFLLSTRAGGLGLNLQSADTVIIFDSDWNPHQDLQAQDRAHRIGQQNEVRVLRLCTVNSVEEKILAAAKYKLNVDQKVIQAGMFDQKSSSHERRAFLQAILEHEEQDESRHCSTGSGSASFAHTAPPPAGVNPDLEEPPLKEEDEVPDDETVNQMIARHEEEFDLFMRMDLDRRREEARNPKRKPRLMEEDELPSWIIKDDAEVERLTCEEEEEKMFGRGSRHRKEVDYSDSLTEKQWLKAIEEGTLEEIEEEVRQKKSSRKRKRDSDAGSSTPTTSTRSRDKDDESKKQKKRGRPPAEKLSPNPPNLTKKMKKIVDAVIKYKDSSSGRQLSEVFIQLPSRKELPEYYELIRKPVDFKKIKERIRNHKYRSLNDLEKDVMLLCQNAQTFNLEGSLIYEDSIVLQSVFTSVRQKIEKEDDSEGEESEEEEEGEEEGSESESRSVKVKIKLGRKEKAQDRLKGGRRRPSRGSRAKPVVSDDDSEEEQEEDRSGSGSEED
In short: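 VCaP cells treated with compounds diluted from DMSO stocks, final DMSO ≤0.3%; equal protein analysed by SDS-PAGE Western blot. Degradation = 100 − (normalized SMARCA4 band in treated/DMSO sample)×100.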

SK-MEL-5 cells = experiment: Anti proliferative activity, Cell Titer Glo assay, SK-MEL-5; details: Homo sapiens, SK-MEL-5, SK-MEL-5 cells, retreatment Day 4, terminated day 8, CellTiter-Glo
Experimental: (§1) Example-P3: Determination of Anti Proliferative Activity of Compounds by Cell Titer Glo®(Promega) Assay
(§2) Cells were seeded into 96-well plates and the plate was incubated in 37 degrees incubator overnight. The next day, compounds were diluted 3-fold to cover 9-point concentration range in DMSO. Intermediate plate dilution was prepared in media followed with compound treatment in cells. Retreatment of cells with compound dilutions was performed on Day 4 and assay was terminated on day 8 for SK-MEL-5 cells using CellTiter-Glo and the plate was kept on orbital shaker for 20 minutes at RT. Assay was terminated on day 6 for RERF-LC-A1 without a compound retreatment. Luminescence signal was recorded on VICTOR^3 instrument. Percent inhibition of proliferation was calculated at each concentration and plotted against the compound concentration. EC50 value was calculated using GraphPad software.

RERF-LC-A1 cell line = experiment: Anti proliferative activity, Cell Titer Glo assay, RERF-LC-A1; details: 144 h; RERF-LC-A1 cells, terminated day 6 without retreatment, CellTiter-Glo
Experimental: as §1, §2
Herein the group “++” refers to EC50 (RERF-LC-A1) values lower than 100 nM and “+” refers to EC50 (RERF-LC-A1) values greater than 100 nM.

Percent degradation (at 100 nM) SMARCA2 (SMARCA2): 94% | Percent degradation (at 100 nM) SMARCA4 (SMARCA4): 0% | EC50 (SK-MEL-5 cells): < 250 nM
SMILES: Cc1ncsc1-c1ccc([C@H](C)NC(=O)[C@@H]2C[C@@H](O)CN2C(=O)[C@@H](NC(=O)CN2CCN(c3ccc(-c4cnnc(-c5ccccc5O)c4)cc3)CC2)C(C)(C)C)cc1 [Compound 2, (2S,4R)-4-hydroxy-1-((S)-2-(2-(4-(4-(6-(2-hydroxyphenyl)pyridazin-4-yl)phenyl)piperazin-1-yl)acetamido)-3,3-dimethylbutanoyl)-N-((S)-1-(4-(4-methylthiazol-5-yl)phenyl)ethyl)pyrrolidine-2-carboxamide]
EC50 (RERF-LC-A1 cell line): < 100 nM
